27 molecules from patent publication US10100027B2, “Benzofuran analogue as NS4B inhibitor” (priority 2014, dated 2018) can be followed below.

What all share (format): cell-based
Data set [1] concerns HCV genotype 1b (HCV-1b) replicon cells. The data set can be described thus: HCV genotype 1b replicon cell assay (luciferase, Bright-Glo). The following applies: Hepatitis C virus, 72 h, HCV-1b (Con1) replicon cells, 3 days. The protocol:
(§1) The EC50 and CC50 values of anti-HCV compounds were determined by HCV genotype 1a (HCV-1a) and 1b (HCV-1b) stable transfected replication (replicon) cells. The source of genotype 1a replicon is H77 clones containing K1691R, K2040R and S2204I adaptive mutations. The source of genotype 1b replicon is Con1 clones containing E1202G, T1280I and K1846T adaptive mutations.
(§2) HCV 1a (HCV-1a) and 1b (HCV-1b) gene subtype replicon system contains the related HCV gene subtype non-structural protein gene, G418 resistance gene NEO and luciferase gene, which results in that HCV related protein and luciferase can be stably expressed in cells. By detecting the level of expression of luciferase gene, the level of HCV replication can be determined. Therefore, the system is used as a model for screening the activity of anti-HCV compound in vitro.
(§3) The compound powder was dissolved in 100% DMSO. Then the compound was diluted 5 times with 6 points, and added into the cell plate with Echo liquid handler. Ensure the final concentration of DMSO was 0.5%. Each compound was tested in duplicate.
(§4) 4) Diluting cells to 8×10^4 cells/mL with the culture medium, adding the diluted cells into the compound-containing 96-well plate (Greiner, Cat. #655090) (100 μL/well, 8000 cells/well) with automatic liquid separator (Thermo Scientific). Then place into a 37° C., 5% CO2 incubator for 3 days. Cell control well: no compound, only containing 0.5% DMSO.
(§5) 6) Then adding luciferase substrate Bright-Glo, after incubation for 5 minutes, detecting the luciferase activity by microplate reader Envison (wavelength>700 nm); analyzing the anti-HCV inhibitory activity of the compounds according to luminescence data, which was used to calculate EC50 values.
(§6) The EC50 or CC50 values were obtained by nonlinear fitting regression on inhibition percentage (inh %) data with GraphPad Prism software.
In general terms: A replicon is a self-replicating genome or part of one, used to study replication in cells.

Data set [2] concerns HCV genotype 1a (HCV-1a) replicon cells. As to the kind of experiment: HCV genotype 1a replicon cell assay (luciferase, Bright-Glo). The conditions noted are these: Hepatitis C virus, 72 h, HCV-1a (H77) replicon cells, 3 days. The protocol:
as §1, §2, §3, §4, §5, §6

Data set [3] can be described thus: Cytotoxicity in HCV replicon cells (Cell Titer-fluor). The protocol: as §1, §3, §4
5) Adding fluorescence substrate Cell Titer-fluor to the cell well, after incubation for 30 minutes, detecting the signal by microplate reader Envison (Ex at 405 nm and read at 515 nm). The effect of the compounds on the cytotoxicity of HCV replicon cells was analyzed according to the fluorescence data, which was used to calculate the CC50 values.
as §6

Where only a bound is given, the exact number is not on record here.

What is called EC50 is the concentration that produces a half-maximal response. Lower therefore signals higher potency in that assay. As a reminder, the CC50 is the concentration giving 50% cytotoxicity. Read a low CC50 as greater toxicity to the cells. For the molecule `O=C(c1oc2c(C(F)(F)F)cc(C3CC3)cc2c1Cl)N1CCC(C(=O)N2CCC2)CC1` [YD_0313], the concentration for a half-maximal effect (EC50) in data set [1] and in data set [2] was 0.0001 to 0.1 µM throughout. In data set [3], this molecule displayed a CC50 at 3 days of more than 3 µM.
Take `CC(C)N1CCN(C(=O)c2nn3c(C(F)(F)F)cc(C4CC4)cc3c2Cl)NC1=O` [YH_0373]: the EC50 in data set [1] and in data set [2] was 0.0001 to 0.1 µM in each case. The same molecule returned a cytotoxic concentration (CC50) at 3 days in data set [3] of more than 3 µM.
As for `Cc1nnc(C23CCC(NC(=O)c4oc5c(C(F)(F)F)cc(C(C)C)cc5c4Cl)(CC2)CC3)o1` [YD_0059], the figures for the concentration for a half-maximal effect (EC50) in data set [1] and in data set [2] were 0.1 to 1 µM and 0.0001 to 0.1 µM, respectively. The same molecule came in with a CC50 at 3 days in data set [3] of more than 3 µM.
As to `C[C@H]1COCCN1C(=O)C1CCN(C(=O)c2oc3c(C(F)(F)F)cc(C4CC4)cc3c2Cl)CC1` [YD_0311], the EC50 in data set [1] and in data set [2] was 0.1 to 1 µM each time. The CC50 at 3 days in data set [3] was more than 3 µM.
`O=C(c1oc2c(C(F)(F)F)cc(C3CC3)cc2c1Cl)N1CCC(C(=O)N2CC(F)C2)CC1` [YD_0342]: the 50% effective concentration (EC50) in data set [1] and in data set [2] was 0.0001 to 0.1 µM in each case. Also, the CC50 at 3 days in data set [3] was more than 3 µM.
Consider `O=C(c1nn2c(C(F)(F)F)cc(C3CC3)cc2c1Cl)N1CCN(C2CCCC2)C(=O)N1` [YH_0369], for which the EC50 in data set [1] was 1 to 5 µM; in data set [2] it was 0.1 to 1 µM. The molecule also returned a 50% cytotoxic concentration (CC50) at 3 days in data set [3] of more than 3 µM.
Taken in the same sequence, the figures for `CCN(C)C(=O)C1CCN(C(=O)c2oc3c(C(F)(F)F)cc(C4CC4)cc3c2Cl)CC1` [YD_0304] were 0.0001 to 0.1 µM, 0.1 to 1 µM and more than 3 µM.
Regarding `COC1CN(C(=O)C2CCN(C(=O)c3oc4c(C(F)(F)F)cc(C5CC5)cc4c3Cl)CC2)C1` [YD_0340], the EC50 in data set [1] and in data set [2] was 0.1 to 1 µM throughout. In addition, in data set [3], the CC50 at 3 days is more than 3 µM.
With `NC(=O)C1CN(C(=O)C2CCN(C(=O)c3oc4c(C(F)(F)F)cc(C5CC5)cc4c3Cl)CC2)C1` [YD_0353], the EC50 is 1 to 5 µM in data set [1] and 0.1 to 1 µM in data set [2]. In addition, the 50% cytotoxic concentration (CC50) at 3 days in data set [3] is more than 3 µM.
Turning to `O=C1CN(N2CCN(C(=O)c3oc4c(C(F)(F)F)cc(C5CC5)cc4c3Cl)CC2=O)C(=O)N1` [YD_0272], the concentration giving a half-maximal response (EC50) in data set [1] and in data set [2] was 0.1 to 1 µM in each case. In data set [3], this molecule had a CC50 at 3 days of more than 3 µM.
For `O=C(c1oc2c(C(F)(F)F)cc(C3CC3)cc2c1Cl)N1CCN(C23CC(C2)C3)C(=O)C1` [YD_0253], the EC50 lay within 0.0001 to 0.1 µM in data set [1] and 0.1 to 1 µM in data set [2]. The CC50 at 3 days in data set [3] was more than 3 µM.
Regarding `O=C(c1oc2c(C(F)F)cc(C3CC3)cc2c1Cl)N1CCN(N2CCOC2=O)CC1` [YD_0278], the EC50 in data set [1] and in data set [2] was 0.0001 to 0.1 µM each time. Moreover, in data set [3], the CC50 at 3 days was more than 3 µM.
As for `O=C(NC12CCC(c3nnco3)(CC1)CC2)c1oc2c(C(F)(F)F)cc(C3CC3)cc2c1Cl` [YD_0122], the concentration for a half-maximal effect (EC50) in data set [1] was 0.1 to 1 µM; in data set [2], 0.0001 to 0.1 µM. The same molecule showed a 50% cytotoxic concentration (CC50) at 3 days in data set [3] of more than 3 µM.
Taken in the same sequence, the figures for `O=C(c1nc2c(C(F)(F)F)cc(C3CC3)cn2c1Cl)N1CCN(C2CC(F)(F)C2)C(=O)N1` [YA_0367] were 0.0001 to 0.1 µM, 0.0001 to 0.1 µM and more than 3 µM.
As for `CC1CNCCN1C(=O)C1CCN(C(=O)c2oc3c(C(F)(F)F)cc(C4CC4)cc3c2Cl)CC1` (stereo not drawn) [YD_0322], the concentration for a half-maximal effect (EC50) in data set [1] and in data set [2] was 0.1 to 1 µM each time. Further, the half-maximal cytotoxic concentration (CC50) at 3 days in data set [3] was more than 3 µM.
On to `O=C(c1oc2c(C(F)(F)F)cc(C3CC3)cc2c1Cl)N1CCC(C(=O)N2CC(CO)C2)CC1` [YD_0355], for which the figures for the EC50 in data set [1] and in data set [2] were 1 to 5 µM and 0.1 to 1 µM, respectively. The molecule also showed a CC50 at 3 days in data set [3] of more than 3 µM.
On the same counts, the results for `CCOC(=O)NN1CCN(C(=O)c2oc3c(C(F)(F)F)cc(C4CC4)cc3c2Cl)CC1` [YD_0312] are 0.1 to 1 µM, 0.1 to 1 µM and more than 3 µM.
On to `O=C(c1nc2c(C(F)(F)F)cc(C3CC3)cn2c1Cl)N1CCN(C2CCC(F)(F)CC2)C(=O)N1` [YA_0366], for which the EC50 in data set [1] and in data set [2] was 0.0001 to 0.1 µM in each case. Also, the 50% cytotoxic concentration (CC50) at 3 days in data set [3] was more than 3 µM.
On to `O=C(c1nc2c(C(F)(F)F)cc(C3CC3)cn2c1Cl)N1CCN(C2CCCC2)C(=O)N1` [YA_0338], for which the concentration for a half-maximal effect (EC50) in data set [1] and in data set [2] was 0.0001 to 0.1 µM throughout. Also, the 50% cytotoxic concentration (CC50) at 3 days in data set [3] was more than 3 µM.
For `CN(C)C1CN(C(=O)C2CCN(C(=O)c3oc4c(C(F)(F)F)cc(C5CC5)cc4c3Cl)CC2)C1` [YD_0343], the half-maximal effective concentration (EC50) is 1 to 5 µM in data set [1] and 0.1 to 1 µM in data set [2]. Also, in data set [3], the CC50 at 3 days was more than 3 µM.
For the molecule `O=C1CN(N2CCN(C(=O)c3oc4c(C(F)(F)F)cc(C5CC5)cc4c3Cl)CC2)C(=O)N1` [YD_0331], the half-maximal effective concentration (EC50) in data set [1] and in data set [2] was 0.0001 to 0.1 µM in each case. This molecule had a cytotoxic concentration (CC50) at 3 days in data set [3] of more than 3 µM.
As for `O=C(c1oc2c(F)cc(C3CC3)cc2c1Cl)N1CCN(N2CCOC2=O)CC1` [YD_0245], the concentration giving a half-maximal response (EC50) in data set [1] and in data set [2] was 0.0001 to 0.1 µM throughout. Further, the CC50 at 3 days in data set [3] is more than 3 µM.
`N#CC1CN(C(=O)C2CCN(C(=O)c3oc4c(C(F)(F)F)cc(C5CC5)cc4c3Cl)CC2)C1` [YD_0352]: the EC50 in data set [1] was in the range of 1 to 5 µM; in data set [2], 0.1 to 1 µM. Also, in data set [3], the cytotoxic concentration (CC50) at 3 days was more than 3 µM.
On the same counts, the results for `CC1(C(=O)N2CC(O)C2)CCN(C(=O)c2oc3c(C(F)(F)F)cc(C4CC4)cc3c2Cl)CC1` [YD_0318] are 1 to 5 µM, 0.1 to 1 µM and more than 3 µM.
Taken in the same sequence, the figures for `CC1(O)CN(C(=O)C2CCN(C(=O)c3oc4c(C(F)(F)F)cc(C5CC5)cc4c3Cl)CC2)C1` [YD_0345] were 1 to 5 µM, 0.1 to 1 µM and more than 3 µM.
Taken in the same sequence, the figures for `O=C(c1oc2c(C(F)(F)F)cc(C3CC3)cc2c1Cl)N1CCN(C23CCC(CC2)CC3)C(=O)C1` [YD_0280] were 0.1 to 1 µM, 0.1 to 1 µM and more than 3 µM.
With `O=C(Nc1ccc(Cl)cn1)C1CCN(C(=O)c2oc3c(C(F)(F)F)cc(C4CC4)cc3c2Cl)CC1` [YD_0327], the figures for the EC50 in data set [1] and in data set [2] were 1 to 5 µM and 0.1 to 1 µM, respectively. Moreover, the CC50 at 3 days in data set [3] is more than 3 µM.
